# Measurements: PubChem BioAssay AID179 (DTP/NCI, 2004)
# Where “and” joins values, the source holds several entries; their conditions need not be identical. Equal entries are not always repeated. Calls of active or inactive are those of the source.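 The calls were made as follows: active = compounds giving half or more protection of infected cells from virus-caused growth loss, again on retest; inactive = the rest.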
# Tested on: CEM cells HIV-1 protection, formazan growth assay
# Experiment: NCI AIDS Antiviral Assay
# Conditions: for IC50: measured here: growth of uninfected CEM cells
# In short: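 Human CEM cells, uninfected and HIV-1-infected, exposed to five drug concentrations; growth measured by soluble formazan assay and scored as percent protection from infection, with protecting compounds retested.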
Compound,EC50,IC50,outcome
CC12CCC3(C1)[C@H](CC2=O)C[C@@H](OC(=O)c1ccccc1)C1C(C)(C(=O)O)CCC[C@@]13C (some centres not stated),> 295 µM,13.5 µM,–
COc1ccccc1NC(=O)C(C#N)=C(SC)SC,> 200 µM,8.91 µM,–
NC(=O)CS(=O)(=O)NC(N)=O,> 200 µM,> 200 µM,–
O=C(O)/C(=C/c1ccc([N+](=O)[O-])cc1)c1ccccc1,> 490 µM,95.5 µM,–
CCCCNC(=S)/N=C/c1c(O)c2ccccc2[nH]c1=O,> 200 µM,> 200 µM,–
CC1(C)CC(=O)C2C(C1)Nc1ccccc1NC2c1cccc([N+](=O)[O-])c1 (configuration not stated),> 200 µM,93.3 µM,–
O=C(NO)C12C3C4C1C1C2C3C41C(=O)NO (configuration not stated),> 1120 µM,631 µM,–
COc1ccc(NC(=O)/C(N=O)=C(/C)O)cc1,> 1050 µM,> 1050 µM,–
O=CC[C@]12CC(=O)OC(C=CC13OCCO3)C2,> 200 µM,> 200 µM,–
CCOC(=O)c1cc(=O)oc2c1N(C)c1ncccc1N2,> 200 µM,166 µM,–
c1ccc2c(c1)nnn2C1CCCCO1 (configuration not stated),> 200 µM,> 200 µM,–
CCOC(=O)Cc1nc2sc(S(N)(=O)=O)nn2c1Br,> 200 µM,10 µM,–
N#CC1(O)Cc2ccccc2C1,> 200 µM,> 200 µM,–
CC(C)=CCSC1CC2C(CC1(C)O)C2(C)C (configuration not stated),> 200 µM,110 µM and 112 µM,–
O=C(NNC(=O)c1ccccn1)c1ccccn1,> 200 µM,4.68 µM,–
CCOC(=O)C(NCc1cccc(C(F)(F)F)c1)(NC(=O)c1ccccc1)C(F)(F)F (configuration not stated),> 200 µM,18.6 µM,–
O=C(NCCc1ccccc1)[C@H]1CCCC[C@@H]1CCO,> 200 µM,> 200 µM,–
COc1ccccc1/C=C1\SC(=S)N(/C=C2\C(=O)Oc3ccccc3C2=O)C1=O,> 200 µM,27.5 µM,–
CCOC(=O)c1c(N2CCCC2)ncn(C)c1=S,> 200 µM,> 200 µM,–
CC1(C)CC(=O)C(C=NC(=S)c2ccccc2)=C(O)C1,> 200 µM,> 200 µM,–
NC1CN(C(COCc2ccccc2)c2ccc(OCc3ccccc3)cc2)C1=O (configuration not stated),–,–,inactive
CCCNC(=S)N/N=C/c1cccc(C)n1,> 200 µM,11 µM,–
CN1N=Nc2ccccc2C1(O)c1ccc(F)cc1 (configuration not stated),> 200 µM,> 200 µM,–

Compound,EC50,IC50,outcome
C[C@H]1CCC2C(CN3CCCCC3)C(=O)OC2[C@]2(C)C(=O)CC(N3CCCCC3)C12O (some centres not stated),–,–,inactive
C[C@]12CC[C@@H]3c4cc(OCC(F)(F)F)c(O)cc4C(=O)C[C@H]3[C@@H]1CC[C@@H]2O,> 200 µM,3.02 µM,–
CCC12CCCN(Cc3ccccc3)C1c1c(n(C)c3ccccc13)CC2 (configuration not stated),> 66.1 µM,> 66.1 µM,–
COc1ccccc1C(N)c1ccccc1 (configuration not stated),> 501 µM,89.1 µM,–
CC(=O)OCCn1c([N+](=O)[O-])cnc1/C=[N+](/[O-])CCO,–,–,inactive
Cc1cc(S(=O)(=O)NC2=NCC(C)(C)CN2)c(S)cc1Cl,> 200 µM,87.1 µM,–
CC(=O)OC[C@H]1OC(=O)C2O[C@H](c3ccccc3)OC21 (some centres not stated),> 200 µM,> 200 µM,–
Cc1cc(=O)oc2cc(OCCCOc3ccc4c(C)cc(=O)oc4c3)ccc12,> 3.72 µM,> 3.72 µM,–
COc1ccc(OC)c(N=Nc2cc(OC)c(N=Nc3c(O)c4ccccc4[nH]c3=O)cc2Cc2ccccc2C(=O)O)c1,> 50.1 µM,31.6 µM,–
COc1ccc(-c2c3c([nH]c(=S)c2C#N)CC(C)(C)CC3=O)cc1,–,–,inactive
O=C(O)c1ccc(Nc2cnc3ccc(C(F)(F)F)cc3n2)cc1,> 200 µM,11.2 µM,–
O=C1C=CC(=O)C(CNc2ccc(C(=O)OC34CC5CC(CC(C5)C3)C4)cc2)=C1,> 200 µM,10.5 µM,–
O=C(O)c1ccccc1C(=O)c1ccc(F)cc1,–,–,inactive
CNC(=O)N(C)C(=O)c1ccccc1C(=O)N(C)C(=O)NC,> 200 µM,> 200 µM,–
O=[N+]([O-])OC1CCCC(O[N+](=O)[O-])c2c1n([O-])c1ccccc1[n+]2=O (configuration not stated),> 51.3 µM,1.41 µM,–
Oc1ccc2ccccc2c1OCc1nnc(CCCCCCCCc2nnc(COc3c(O)ccc4ccccc34)o2)o1,> 200 µM,47.9 µM,–
CC1OC(=O)C(C(C)C)NC(=O)C(C(C)C)OC(=O)C(C(C)C)NC(=O)C(C)OC(=O)C(C(C)C)NC(=O)C(C(C)C)OC(=O)C(C(C)C)NC(=O)C(C)OC(=O)C(C(C)C)NC(=O)C(C(C)C)OC(=O)C(C(C)C)NC1=O (configuration not stated),> 0.02 µM,0.00102 µM,–
Oc1cccc2ccc(Br)nc12,> 200 µM,178 µM,–
O=S1(=O)CC2C(C1)C1(c3ccccc3)OC2(c2ccccc2)c2ccccc21 (configuration not stated),–,–,inactive
O=C(Cc1nc(-c2ccccc2)cc(=O)n1-c1ccccc1Cl)c1ccncc1,> 1.35 µM,> 1.35 µM,–
CC1(C)CCc2cc3c(cc2O1)OCC1c2cc(O)c(OCc4ccccc4)cc2OC31 (configuration not stated),> 200 µM,23.4 µM,–
CCOC(=O)c1[nH]n(-c2ccccc2)c(=O)c1/C=N/C(=S)Nc1c(CC)cccc1CC,> 100 µM,24.5 µM,–
COC1=CC(=O)O[C@]2(C)OCC(C)C(O)=C12 (some centres not stated),> 1100 µM,> 1100 µM,–

Compound,EC50,IC50,outcome
Cc1ccc(C(=O)/C=C/c2ccccc2O)c(C)c1,91.2 µM,102 µM,–
COc1cccc2c1C(=O)c1c(O)c3c(c(O)c1C2=O)CC1(O)CC3OC1(C)OC (configuration not stated),> 4.57 µM,> 4.57 µM,–
CCCCCCCc1ccc(OC2OC(CO)C(O)C(O)C2O)cc1 (configuration not stated),> 126 µM,29.5 µM and 10.2 µM,–
c1ccc(C2N3CCCCC3[C@@H]3c4[nH]c5ccccc5c4CCN23)nc1 (some centres not stated),> 105 µM,> 105 µM,–
Cc1cccc(/C=N\NC(=S)N2CCCCC2)n1,> 200 µM,0.0631 µM,–
COc1nc2c(c(O)c(C)c(=O)n2OC2OCC(OC(C)=O)C(OC(C)=O)C2OC(C)=O)c(=O)n1C (configuration not stated),> 132 µM,> 132 µM,–
C1CSCCSCCSCCSCCS1,> 17.4 µM,> 17.4 µM,–
N/N=C(/CS(=O)(=O)c1ccc(Cl)cc1)c1ccccc1,> 100 µM,> 100 µM,–
O=C1CC(c2ccccc2)NCN1 (configuration not stated),–,–,inactive
CC(OC(=O)NCn1cc(-c2ccccc2)nn1)c1ccccc1 (configuration not stated),56.2 µM,75.9 µM,–
C[C@]12CCC3c4ccc(OC(=O)c5ccccc5)cc4CC[C@H]3C1CC[C@@H]2OC(=O)C12OC1CCC2=O (some centres not stated),> 200 µM,4.07 µM,–
OC(CN1CCC(c2ccccc2)CC1)c1ccc(Br)cc1 (configuration not stated),> 18.2 µM,> 18.2 µM,–
COc1cc([N+](=O)[O-])cc2c1NC(=O)C2(C)SC (configuration not stated),> 200 µM,30.9 µM,–
C=CCN1CC2CN=NC2(C#N)C1 (configuration not stated),> 200 µM,> 200 µM,–
Cc1ccc(/C(O)=C/c2nc3ccccc3oc2=O)cc1,> 200 µM,55 µM,–
Oc1c(-c2ccccc2)nc2cnccn12,> 447 µM,> 447 µM,–
O=C(CN(c1ccc(S(=O)(=O)O)cc1)c1ccc(S(=O)(=O)O)cc1)Nn1cnc2ccc(S(=O)(=O)N(c3ccc(S(=O)(=O)O)cc3)c3ccc(S(=O)(=O)O)cc3)cc2c1=O,> 100 µM,95.5 µM,–
Cc1cc(Br)ccc1NC1=CC(=O)C(=O)c2ccccc21,> 2.19 µM,> 2.19 µM,–
CC1(c2ccccc2)Oc2ccccc2-n2cccc2C1=O (configuration not stated),2.4 µM,12.9 µM,–
CSc1nc(C)cc(=O)n1C1OC(COC(C)=O)C(OC(C)=O)C(OC(C)=O)C1OC(C)=O (configuration not stated),> 200 µM,> 200 µM,–
O=C(c1ccccc1)N1C(=S)N(c2ccccn2)C(=Nc2ccccc2)C1=Nc1ccccc1,> 200 µM,8.71 µM,–
CC(C)CC(=O)CC(C)[C@]1(CCCOCc2ccccc2)C(=O)N2CCC3(C[C@@]24CCC[C@H]41)OCCO3 (some centres not stated),> 200 µM,35.5 µM,–
Cc1cc(O)cc2c1CC=C1C(=C2)C(=O)C(=O)C(C(C)C)=C1O,–,–,inactive

Compound,EC50,IC50,outcome
CC(C)=NOC(=O)OC[C@H]1O[C@@H](n2cnc3c(N)ncnc32)C(O)C1O (some centres not stated),> 200 µM,> 200 µM,–
COP(=O)(/C=C/c1cc(C(=O)OCc2ccccc2)n(S(=O)(=O)c2ccccc2)c1)OC,145 µM,> 200 µM,–
CN(C)C(F)=PC(F)(F)F (configuration not stated),> 251 µM,> 251 µM,–
Cc1ccc(C(=O)Nc2ccc(S(=O)(=O)O)c3cc(S(=O)(=O)O)cc(S(=O)(=O)O)c23)cc1NC(=O)Nc1cc(C(=O)Nc2ccc(S(=O)(=O)O)c3cc(S(=O)(=O)O)cc(S(=O)(=O)O)c23)ccc1C,138 µM,209 µM,–
NS(=O)(=O)c1ccc2c(c1)OCCOCCOCCOCCO2,> 200 µM,> 200 µM,–
CCCCCCCCCCCC(O)S(=O)(=O)O (configuration not stated),> 200 µM,102 µM,–
COc1ccc(/C=C2/SC(=S)NC2=O)c(OC)c1OC,> 200 µM,7.76 µM,–
Clc1cccc2c(N3CC3)cnnc12,–,–,inactive
CCN(CC)C1=CC(=O)C(=O)c2cccnc21,–,–,inactive
O=C(O)C1CCCN1C(=O)c1cc(Cl)ccn1 (configuration not stated),> 200 µM,> 200 µM,–
CCCCCCCCCCCCCCCCOCC(Cl)COP(=O)(O)OP(=O)(O)OCC1OC(n2cc(C)c(=O)[nH]c2=O)CC1O (configuration not stated),> 145 µM,123 µM,–
Cc1cc(C)c2c(c1)C(=O)C1(C2)Cc2c(ccc(C)c2C)C1=O (configuration not stated),> 100 µM,> 100 µM,–
O[C@]12CCCC[C@H]1CCC2,–,–,inactive
CCC[CH2][Sn]([CH2]CCC)([O]C(=O)c1cccnc1SC)[O]C(=O)c1cccnc1SC,> 12.6 µM,9.12 µM,–
CC1=C(C(N)=O)C(c2ccncc2)C(C#N)=C2SCC(=O)N12 (configuration not stated),> 200 µM,> 200 µM,–
COc1ccccc1N=C1SCC(=O)N1Cc1ccco1,> 135 µM,89.1 µM,–
COc1ccc(CN2CCCN(Cc3ccc(OC)cc3OC)C2c2cc(Cl)cc(Cl)c2O)c(OC)c1,> 200 µM,34.7 µM,–
NC(=O)C(=O)C1CCC2=C(Sc3ccccc3N2)C1=O (configuration not stated),> 46.8 µM,> 46.8 µM,–
S=C(NNC1=NCCN1)Nc1ccccc1,> 200 µM,2.82 µM,–
N#Cc1ccc(NC(=NCC(=O)O)Nc2cccc3ccccc23)cc1,> 200 µM,> 200 µM,–
